Results reported in article PMC12040169 (PLOS Biology, 2025).

Assays:
[1] = tested on: T1, CTL2-GFP (C. trachomatis L2/434/Bu, GFP-expressing); assay: microbe, parasite or virus in culture; design: Intracellular C. trachomatis growth in HeLa cells, bulk GFP fluorescence relative to DMSO; settings: Chlamydia trachomatis, HeLa, 28.5 h; bulk GFP, mean of 2; read-out: % of control remaining
T1 construct: L2/434/Bu, GFP-expressing
Description: MICs were calculated as described above.

in vitro [2] = assay: in vitro; design: Viability of infected HeLa host cells, resazurin conversion, bulk resorufin fluorescence relative to DMSO; settings: human, hela cells; bulk resorufin, mean of 2
[3] = tested on: T2, C. trachomatis L2/434/Bu expressing GFP (CTL2-GFP); assay: microbe, parasite or virus in culture; design: C. trachomatis total inclusion area by high-content imaging, normalised to DMSO; settings: Chlamydia trachomatis, HeLa, 28.5 h; total inclusion area; read-out: % of control remaining
T2 construct: L2/434/Bu GFP intracellular growth in HeLa cells
Summary of the method: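 Screening measures GFP fluorescence from the reporter strain and resorufin fluorescence for host viability, with Hoechst-based imaging of fixed cells adding inclusion area, inclusion number and nuclei count per well.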

in vitro [4] = settings: human, hela cells, % viability

| SMILES | activity at 1 µM [1] [%] | activity at 5 µM [1] [%] | activity at 10 µM [1] [%] | viability at 28.5 h, 1 µM (in vitro [2]) [%] | viability at 28.5 h, 5 µM (in vitro [2]) [%] | viability at 28.5 h, 10 µM (in vitro [2]) [%] | activity at 1 µM [3] [%] | activity at 5 µM [3] [%] | activity at 10 µM [3] [%] | viability at 28.5 h, 10 µM (in vitro [4]) [%] |
| --- | --- | --- | --- | --- | --- | --- | --- | --- | --- | --- |
| CCc1cc(Br)ccc1S(=O)(=O)NC(CC)COC (centres unmarked) [CBK045265] | 138 | 114 | 140 | 100 | 99 | 96.5 | 117 | 106 | 97.7 | 88.1 |
| Fc1cc(Br)c(CNCc2ncc[nH]2)c(N2CCCCC2)c1F [CBK304243] | 128 | 39.3 | 16.8 | 96.3 | 88.7 | 89.7 | 105 | 30.4 | 7.47 | 99.2 |
| Nc1ccc(C(=O)Nc2ccc(-c3nc4ccc(NC(=O)c5ccc(N)cc5)cc4[nH]3)cc2)cc1 [CBK261147] | 149 | 133 | 160 | 88.3 | 93.2 | 103 | 101 | 76.7 | 91.9 | 109 |
| CC1CC(C)CN(Cc2csc(NC(=O)Cc3ccc(Cl)cc3)n2)C1 (centres unmarked) [CBK306142] | 150 | 112 | 75.2 | 87.7 | 91.3 | 86 | 140 | 48.4 | 46.1 | 81.1 |
| Nc1nc(F)nc2c1ncn2[C@H]1C[C@@H](O)[C@@H](CO)O1 [CBK201337] | 52.9 | 11.5 | 14.4 | 93.5 | 79.2 | 72.6 | 50.4 | 4.65 | 1.29 | 77.6 |
| O=[N+]([O-])c1ccc2[nH]c3c(c2c1)CCCC3NC1CCN(CCc2ccccc2)CC1 (centres unmarked) [CBK262874] | 58.5 | 25.9 | 16.1 | 91.5 | 84.8 | 76.1 | 60.6 | 15.1 | 3.02 | 77.1 |
| COc1ccc(C=CC(=O)Nc2sc3c(c2C(=O)O)CCCC3)cc1OC [CBK296103] | 118 | 85.9 | 27.4 | 91.1 | 87.4 | 89.7 | 117 | 69.8 | 22.5 | 117 |
| O=C(CSCc1c(F)cccc1Cl)Nc1ccc(S(=O)(=O)N2CCCCC2)cc1 [CBK268034] | 82.4 | 35.6 | 27.1 | 91.9 | 104 | 101 | 90.3 | 35.6 | 13.2 | 90.4 |
| O=C(Nc1ccc(S(=O)(=O)Nc2ncccn2)cc1)c1ccc2c(c1)OCCO2 [CBK268132] | 135 | 76.4 | 55.4 | 84 | 94.2 | 95.2 | 89.9 | 82.3 | 42.6 | 96.7 |
| CCOc1cc(/C=N/Nc2nnc(C)n2N)ccc1O [CBK027460] | 109 | 57.8 | 26 | 93.3 | 88.7 | 87.4 | 115 | 81 | 31.7 | 88.9 |
| CCc1nnc(NS(=O)(=O)c2ccc(NC(=O)COc3ccc(Cl)cc3Cl)cc2)s1 [CBK200050] | 112 | 48.5 | 22.1 | 104 | 96.7 | 98.4 | 99.2 | 67 | 37.8 | 108 |
| O=C(NCCCn1ccnc1)c1cc(-c2cccc(Br)c2)nc2ccccc12 [CBK265476] | 88.9 | 13 | 0 | 108 | 115 | 116 | 76.4 | 28.5 | 3.75 |  |
